Measured values as given in patent publication US20240148821A1, “PHARMACEUTICAL USE OF CYCLIC PEPTIDE COMPOUND” (CHUGAI SEIYAKU KABUSHIKI KAISHA, priority 2021, published 2024).
Numbered stars: 1 amine (or outer) side, 2 acyl side, 3 side chain; on linkers, the order of the positions; unused ones are H or OH. Bridge positions count the residues as written; N and C are the ends. Square brackets hold non-standard residues; d marks the D form. Peptide text beside a SMILES is read from it. * marks the point of attachment. hPhe(3-Cl-4-CF3) = N[C@@H](CCc1ccc(C(F)(F)F)c(Cl)c1)C(=O)O; X49 = CN([C@@H](Cc1cccc(OC(F)(F)F)c1)C(=O)[*:2])[*:1]; NMePhe(4-CF3) = CN[C@@H](Cc1ccc(C(F)(F)F)cc1)C(=O)O; NMePhe(4-Cl) = CN[C@@H](Cc1ccc(Cl)cc1)C(=O)O; NMePhe(4-Me) = CN[C@@H](Cc1ccc(C)cc1)C(=O)O; NMePhe(4-F) = CN[C@@H](Cc1ccc(F)cc1)C(=O)O; NMeGly(cPent) = CN[C@H](C(=O)O)C1CCCC1; Phe(3-I) = N[C@@H](Cc1cccc(I)c1)C(=O)O; Phe(2-Me) = Cc1ccccc1C[C@H](N)C(=O)O; NMeCha = CN[C@@H](CC1CCCCC1)C(=O)O; NMeChg = CN[C@H](C(=O)O)C1CCCCC1; NMeF = CN[C@@H](Cc1ccccc1)C(=O)O; NMeD = CN[C@@H](CC(=O)O)C(=O)O; NMeL = CN[C@@H](CC(C)C)C(=O)O; NMeNva = CCC[C@H](NC)C(=O)O; NMeV = CN[C@H](C(=O)O)C(C)C; d(β3hA) = C[C@@H](N)CC(=O)O; NMeA = CN[C@@H](C)C(=O)O; NMeAib = CNC(C)(C)C(=O)O; Nle = CCCC[C@H](N)C(=O)O; Piperidide = C1CCN(*)CC1; Pra = C#CC[C@H](N)C(=O)O; Ac5c = NC1(C(=O)O)CCCC1; Aze = O=C(O)[C@@H]1CCN1; Sar = CNCC(=O)O

These compounds were tested on Human pancreatic cancer cell line AsPC-1 (G12D mutation Kras) (assay: AsPC-1 cell growth inhibition (AsPC-1 CGI)). Conditions: read-out: AsPC-1 cell growth inhibition, 50% growth inhibitory concentration (IC50 value); 96 hours, CellTiter-Glo, values classified in ranges.
Format: cell-based
Procedure: Test compounds were serially dilated with dimethyl sulfoxide, and 200 nL was then dispensed to a U-bottom 96-well plate using Labcyte Echo. […] The cell suspension was dispensed to a. plate containing a test compound at 100 μL per well and incubated at 37° C. in a 5% carbon dioxide gas incubator. 96 hours later, 80 μL of CellTiter-Glo (Promega) was added to each well and fluorescence was measured.
With `CCCC[C@@H]1NC(=O)[C@H](Cc2cccc(I)c2)NC(=O)CN(C)C(=O)[C@H](Cc2ccc(Cl)cc2)N(C)C(=O)CN(C)C(=O)CN(C)C(=O)[C@H]([C@@H](C)CC)NC(=O)[C@H](CC(C)C)N(C)C(=O)C[C@@H](C(=O)N2CCCCC2)N(C)C(=O)[C@H](CC(C)C)NC(=O)[C@H](Cc2cccc(OC(F)(F)F)c2)N(C)C1=O` [Compound 143] ([NMeL]I[Sar][Sar][NMePhe(4-Cl)][Sar][Phe(3-I)][Nle][X49]L[NMeD]-Piperidide; lactam N-11) the IC50 was greater than 500 nM.
In the case of `CC[C@H](C)[C@@H]1NC(=O)[C@H](CC(C)C)N(C)C(=O)C[C@@H](C)NC(=O)[C@H](C2CCCC2)N(C)C(=O)C2(CCCC2)NC(=O)[C@H](C)NC(=O)[C@H](CCc2ccc(C(F)(F)F)c(Cl)c2)NC(=O)CN(C)C(=O)[C@H](Cc2ccc(C)cc2)N(C)C(=O)[C@@H]2CCN2C(=O)[C@H](C)N(C)C1=O` [Compound 1307] (cyclo(A[Ac5c][NMeGly(cPent)][d(β3hA)][NMeL]I[NMeA][Aze][NMePhe(4-Me)][Sar][hPhe(3-Cl-4-CF3)])), the IC50 is reported as greater than 500 nM.
`CC[C@H](C)[C@@H]1NC(=O)[C@H](CC(C)C)N(C)C(=O)C[C@@H](C(=O)N2CCCCC2)N(C)C(=O)[C@H](CC(C)C)NC(=O)C(C)(C)N(C)C(=O)[C@H](Cc2ccccc2C)NC(=O)[C@H](Cc2cccc(I)c2)NC(=O)CN(C)C(=O)[C@H](Cc2ccc(C)cc2)N(C)C(=O)[C@@H]2CCN2C(=O)CN(C)C1=O` [Compound 335] ([NMeL]I[Sar][Aze][NMePhe(4-Me)][Sar][Phe(3-I)][Phe(2-Me)][NMeAib]L[NMeD]-Piperidide; lactam N-11) gave an IC50 greater than 500 nM.
In the case of `CC[C@H](C)[C@@H]1NC(=O)[C@H](CC(C)C)N(C)C(=O)C[C@@H](C(=O)N2CCCCC2)N(C)C(=O)[C@H](C2CCCCC2)N(C)C(=O)C2(CCCC2)NC(=O)[C@H](Cc2ccccc2)N(C)C(=O)[C@H](CCc2ccc(C(F)(F)F)c(Cl)c2)NC(=O)CN(C)C(=O)[C@H](CC2CCCCC2)N(C)C(=O)[C@@H]2CCN2C(=O)CN(C)C1=O` [Compound 527] ([NMeL]I[Sar][Aze][NMeCha][Sar][hPhe(3-Cl-4-CF3)][NMeF][Ac5c][NMeChg][NMeD]-Piperidide; lactam N-11), the IC50 is reported as greater than 500 nM.
Compound `CCC[C@H]1C(=O)N(C)CC(=O)N[C@@H](CCc2ccc(C(F)(F)F)c(Cl)c2)C(=O)N2CCC[C@H]2C(=O)NC2(CCCC2)C(=O)N(C)[C@@H](C(C)C)C(=O)N(C)[C@H](C(=O)N2CCCCC2)CC(=O)N(C)[C@@H](CC(C)C)C(=O)N[C@@H]([C@@H](C)CC)C(=O)N(C)[C@@H](C)C(=O)N2CC[C@H]2C(=O)N1C` [Compound 1027] ([NMeL]I[NMeA][Aze][NMeNva][Sar][hPhe(3-Cl-4-CF3)]P[Ac5c][NMeV][NMeD]-Piperidide; lactam N-11) has an IC50 greater than 500 nM.
Compound `CC[C@H](C)[C@@H]1NC(=O)[C@H](C)N(C)C(=O)C[C@@H](C(=O)N2CCCCC2)N(C)C(=O)[C@H](C(C)C)N(C)C(=O)C2(CCCC2)NC(=O)[C@@H]2CCCN2C(=O)[C@H](CCc2ccc(C(F)(F)F)c(Cl)c2)NC(=O)CN(C)C(=O)[C@H](Cc2ccc(F)cc2)N(C)C(=O)[C@@H]2CCCN2C(=O)CN(C)C1=O` [Compound 1698] ([NMeA]I[Sar]P[NMePhe(4-F)][Sar][hPhe(3-Cl-4-CF3)]P[Ac5c][NMeV][NMeD]-Piperidide; lactam N-11) has an IC50 greater than 500 nM.
`C#CC[C@@H]1NC(=O)[C@H](Cc2cccc(I)c2)NC(=O)CN(C)C(=O)[C@H](Cc2ccc(C(F)(F)F)cc2)N(C)C(=O)CN(C)C(=O)CN(C)C(=O)[C@H]([C@@H](C)CC)NC(=O)[C@H](CC(C)C)N(C)C(=O)C[C@@H](C(=O)N2CCCCC2)N(C)C(=O)[C@H](CC(C)C)NC(=O)C(C)(C)N(C)C1=O` [Compound 1361] ([NMeL]I[Sar][Sar][NMePhe(4-CF3)][Sar][Phe(3-I)][Pra][NMeAib]L[NMeD]-Piperidide; lactam N-11) gave an IC50 greater than 500 nM.
